Laboratory results taken from patent US20060148858A1, “1, 2-Azole derivatives with hypoglycemic and hypolipidemic activity” (priority 2002, published 2006).
Where two headings read alike, the source gives them in different places.

Experiments:
KKAY mice [1] = assay: Plasma anti-arteriosclerosis index-enhancing action in mice (Test Example 2); format: in vivo; details: Mus musculus, po, 96 h, 0.005% in powdery diet, four days, percent increase of (HDL cholesterol/total cholesterol)x100, non-treatment group taken as 100%
Experimental: Test compounds were mixed in a powdery diet (CE-2, Japan Clea) at the concentration of 0.005%, and freely given to KKAY mice (9 to 12 weeks old, 5 mice per group), a model of obese and non-insulin dependent diabetes (type 2 diabetes), for four days. During this period, water was given freely. Blood was sampled from orbital venous plexus and components in plasma separated from blood were determined. Total cholesterol levels were determined by using L type Wako Cholesterol (Wako Pure Chemical Industries, Ltd.). Precipitation reagent for HDL cholesterol (Wako Pure Chemical Industries, Ltd.) was added to a part of the plasma to precipitate non-HDL lipoprotein, and cholesterol (HDL cholesterol) in the resulting supernatant was determined. The plasma anti-arteriosclerosis index [(HDL cholesterol/total cholesterol)×100] was calculated by using these cholesterol levels.
In the Table, “Plasma anti-arteriosclerosis index-enhancing action (%)” represents the percent increase (%) of plasma anti-arteriosclerosis index in the treatment group, when the plasma anti-arteriosclerosis index in the non-treatment group is taken as 100%.

KKAY mice [2] = assay: Hypoglycemic and hypolipidemic actions in mice (Test Example 1); format: in vivo; details: Mus musculus, po, 96 h, 0.005% in powdery diet, four days, non-treated group taken as 100%
Outline: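 KKAY mice (9 to 12 weeks old, 5 per group) were fed diet containing 0.005% test compound ad libitum for four days. Plasma glucose and triglycerides from orbital venous blood were measured enzymatically, reported as % decrease relative to untreated group (100%).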

PPARγ-RXRα heterodimer = biological target: T1, PPARγ-RXRα heterodimer (Homo sapiens, UniProt P37231); assay: PPARγ-RXRα heterodimer ligand activity, luciferase reporter in PPARγ:RXRα:4ERPP/CHO-K1 cells (Test Example 3); format: cell-based; details: 18-48 hours, concentration for 50% of the maximum fold induction
T1 construct: expressed in transfected cells; host or cells: CHO-K1
T1 sequence (P37231 1-477 isoform P37231-2): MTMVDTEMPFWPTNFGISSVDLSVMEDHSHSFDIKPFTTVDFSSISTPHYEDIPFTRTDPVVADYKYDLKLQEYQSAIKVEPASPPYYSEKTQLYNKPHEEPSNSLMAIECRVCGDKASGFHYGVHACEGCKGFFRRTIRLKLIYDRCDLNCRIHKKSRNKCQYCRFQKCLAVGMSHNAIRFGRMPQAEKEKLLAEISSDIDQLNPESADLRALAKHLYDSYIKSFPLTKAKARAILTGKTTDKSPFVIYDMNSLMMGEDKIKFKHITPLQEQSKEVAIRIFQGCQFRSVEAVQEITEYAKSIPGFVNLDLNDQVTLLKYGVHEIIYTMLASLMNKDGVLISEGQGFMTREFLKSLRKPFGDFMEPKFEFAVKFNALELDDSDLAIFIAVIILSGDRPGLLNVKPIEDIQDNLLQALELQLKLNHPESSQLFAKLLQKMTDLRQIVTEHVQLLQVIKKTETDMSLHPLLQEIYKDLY
T1 sequence (P19793 1-462 partner): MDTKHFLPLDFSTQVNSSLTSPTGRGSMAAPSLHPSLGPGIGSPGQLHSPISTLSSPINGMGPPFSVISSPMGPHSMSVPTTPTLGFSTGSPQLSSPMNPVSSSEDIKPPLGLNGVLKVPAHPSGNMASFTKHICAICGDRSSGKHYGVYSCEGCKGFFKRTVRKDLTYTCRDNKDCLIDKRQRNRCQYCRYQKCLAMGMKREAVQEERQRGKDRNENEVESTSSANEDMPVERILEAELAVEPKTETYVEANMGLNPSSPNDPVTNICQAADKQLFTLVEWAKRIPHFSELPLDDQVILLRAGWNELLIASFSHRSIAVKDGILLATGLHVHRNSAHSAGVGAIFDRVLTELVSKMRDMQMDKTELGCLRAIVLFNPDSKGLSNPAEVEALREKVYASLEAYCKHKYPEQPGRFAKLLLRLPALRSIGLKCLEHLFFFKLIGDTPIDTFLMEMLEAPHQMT
Experimental: A PPARγ: RXRα: 4ERPP/CHO-K1 cells obtained in Reference Example 8a described later were cultured in HAM F12 medium (produced by Life Technologies, Inc., USA) containing 10% Fetal bovine serum (produced by Life Technologies, Inc., USA) and then inoculated to a 96-well white plate (produced by Corning Costar Corporation, USA) at the density of 2×10^4 cells/well, and cultured in a CO2 gas incubator at 37° C. overnight.
After removing the medium from 96 well white plate, 80 μl of HAM F12 medium containing 0.1% fatty acid-free bovine serum albumin (BSA) and 20 μl of test compound were added, which was cultured in a CO2 gas incubator at 37° C. for 18-48 hours. After removing the medium, 40 μl of PIKKAGENE 7.5 (produced by Wako Pure Chemical Industries, Ltd.) diluted twice with HBSS (HANKS' BALANCED SALT SOLUTION)(produced by BIO WHITTAKER Inc., USA), was added. After stirring, the luciferase activity was determined using 1420 ARVO Multilabel Counter (produced by PerkinElmer Inc., USA).
A fold induction was calculated based on the luciferase activity of each test compound by taking the luciferase activity in the non-treatment group as 1. The values of the test compound concentration and the fold induction were analyzed using PRISM (produced by GraphPad Software Inc. USA) to calculate the EC50 values, the effective concentration of a test compound for 50% of the maximum fold induction.
After a CHO-K1 cell cultured in a 150 cm^2 cell culture flask (750 ml)(produced by Corning Costar Corporation, USA) containing HAM F12 medium (produced by Life Technologies, Inc., USA) supplemented with 10% Fetal Bovine Serum (produced by Life Technologies, Inc., USA) was scraped by treating with 0.5 g/L trypsin-0.2 g/L EDTA (ethylenediaminetetraacetic acid) (produced by Life Technologies, Inc., USA), the cell was washed with PBS (phosphate-buffered saline) (produced by Life Technologies, Inc., USA), centrifuged (1000 rpm, 5 minutes), and then suspended in PBS. Subsequently, a DNA was introduced into the cell under the condition shown below using GENE PULSER (produced by Bio-Rad Laboratories, USA).
Namely, to a cuvette having a 0.4 cm gap, added were 8×10^6 cells and 10 μg of plasmid pVgRXR2-hPPARγ obtained in Reference Example 7a and 10 μg of reporter plasmid pGL3-4ERPP-TK neo obtained in Reference Example 5a, which was subjected to electroporation at the voltage of 0.25 kV under the capacitance of 960 μF. Subsequently, the cell was transferred into a HAM F12 medium containing 10% Fetal Bovine Serum and cultured for 24 hours and then the cell was scraped again and centrifuged, and then suspended in HAM F12 medium containing 10% Fetal Bovine Serum supplemented with 500 μg/ml of GENETICIN (produced by Life Technologies, Inc., USA) and 250 μg/ml of ZEOCIN (produced by Invitrogen, USA). The obtained suspension was diluted to the density of 10^4 cells/ml and inoculated to a 96-well plate (produced by Corning Costar Corporation, USA), which was cultured in a CO2 gas incubator at 37° C., whereby obtaining a GENETICIN- and ZEOCIN-resistant transformant.
Subsequently, after the transformant cell line thus obtained was cultured in a 24-well plate (produced by Corning Costar Corporation, USA), selected was a cell line in which the luciferase was expressed and induced, i.e., PPARγ:RXRα:4ERPP/CHO-K1 cell by addition of 10 μM of pioglitazone hydrochloride.

[3] = rate of decrease in blood glucose level, read-out: Hypoglycemic action (%)
[4] = rate of decrease in blood triglyceride level, read-out: Hypolipidemic action (%)

| Structure (SMILES) | EC50 (PPARγ-RXRα heterodimer) | melting point | change in vivo at 0.005 % in diet (KKAY mice [1]) | inhibition in vivo at 0.005 % in diet (KKAY mice [2]; [3]) | inhibition in vivo at 0.005 % in diet (KKAY mice [2]; [4]) |
| --- | --- | --- | --- | --- | --- |
| CCOc1nn(-c2ccc(C(F)(F)F)cn2)cc1CCCOc1cccc(OC(C)(C)C(=O)O)c1 [Example 29, 2-[3-(3-{3-ethoxy-1-[5-(trifluoromethyl)-2-pyridyl]-1H-pyrazol-4-yl}propoxy)phenoxy]-2-methylpropionic acid] | 0.16 µM | 120 to 121 °C | 23% | 46% | 65% |
| CCCc1nn(-c2ccc(C(F)(F)F)cn2)cc1CCCOc1cccc(OC(C)(C)C(=O)O)c1 [Example 41, 2-methyl-2-[3-(3-{3-propyl-1-[5-(trifluoromethyl)-2-pyridyl]-1H-pyrazol-4-yl}propoxy)phenoxy]propionic acid] | 0.077 µM | 99 to 100 °C | 12% | 25% | 48% |
| CCCc1nn(-c2ccc(C(F)(F)F)cn2)cc1CCCOc1c(CC(=O)O)cccc1OC [Example 259, [3-methoxy-2-(3-{3-propyl-1-[5-(trifluoromethyl)-2-pyridyl]-1H-pyrazol-4-yl}propoxy)phenyl]acetic acid] | 0.076 µM | 122 to 123 °C | 25% | 34% | 70% |
| O=C(O)Cc1ccccc1OCCCc1cn(-c2ccc(C(F)(F)F)cn2)nc1C1CCCCC1 [Example 302, [2-(3-{3-cyclohexyl-1-[5-(trifluoromethyl)-2-pyridinyl]-1H-pyrazol-4-yl}propoxy)phenyl]acetic acid] | 0.037 µM | 127 to 128 °C | 24% | – | – |
| Cn1cc(CC(=O)O)c(OCCCc2cn(-c3ccc(C(F)(F)F)cn3)nc2C2CCCCC2)n1 [Example 303, [3-(3-{3-cyclohexyl-1-[5-(trifluoromethyl)-2-pyridinyl]-1H-pyrazol-4-yl}propoxy)-1-methyl-1H-pyrazol-4-yl]acetic acid] | 0.052 µM | 157 to 158 °C | 14% | – | – |
| CCC(CC)c1nn(-c2ccc(C(F)(F)F)cn2)cc1CCCOc1nn(CC)cc1CC(=O)O [Example 333, [1-ethyl-3-(3-{3-(1-ethylpropyl)-1-[5-(trifluoromethyl)-2-pyridinyl]-1H-pyrazol-4-yl}propoxy)-1H-pyrazol-4-yl]acetic acid] | 0.061 µM | – | 11% | – | – |

Now those with a lower EC50 (PPARγ-RXRα heterodimer), led by results:

| EC50 (PPARγ-RXRα heterodimer) | melting point | Structure (SMILES) | change in vivo at 0.005 % in diet (KKAY mice [1]) | inhibition in vivo at 0.005 % in diet (KKAY mice [2]; [3]) | inhibition in vivo at 0.005 % in diet (KKAY mice [2]; [4]) |
| --- | --- | --- | --- | --- | --- |
| 0.035 µM | 101 to 102 °C | CC(C)c1nn(-c2ccc(C(F)(F)F)cn2)cc1CCCOc1cccc(OC(C)(C)C(=O)O)c1 [Example 28, 2-[3-{3-(3-isopropyl-1-[5-(trifluoromethyl)-2-pyridyl]-1H-pyrazol-4-yl}propoxy)phenoxy]-2-methylpropionic acid] | 18% | 42% | 56% |
| 0.035 µM | 159 to 160 °C | Cc1cccc(CC(=O)O)c1OCCCc1cn(-c2ccc(C(F)(F)F)cn2)nc1C(C)C [Example 315, [2-(3-{3-isopropyl-1-[5-(trifluoromethyl)-2-pyridinyl]-1H-pyrazol-4-yl}propoxy)-3-methylphenyl]acetic acid] | 11% | 53% | 70% |
| 0.029 µM | 148 to 149 °C | COc1cccc(CC(=O)O)c1OCCCc1cn(-c2ccc(C(C)=O)cn2)nc1C(C)C [Example 332, (2-{3-[1-(5-acetyl-2-pyridinyl)-3-isopropyl-1H-pyrazol-4-yl]propoxy}-3-methoxyphenyl)acetic acid] | 11% | – | – |
